These results are taken from ChEMBL document CHEMBL1629623, “In vitro activity of the quinolone WCK 771 against recent U.S. hospital and community-acquired Staphylococcus aureus pathogens with various resistance types” (Antimicrob Agents Chemother, 2009).

Molecules are shown by their SMILES. Values after ≈ are worked out from the molar mass of the structure shown. Active and inactive are the calls of the source. No cut-off for these calls is given here.

Data set [1] can be described thus: AUC in human at 800 mg, iv qd after 24 hrs. Format: ADME, organism-based. The following applies: plasma. Also noted: dose 800 mg, time < 24 hr, route intravenous.
In data set [2] the test system is Staphylococcus aureus. Kind of data set: Antibacterial activity against vancomycin-resistant Staphylococcus aureus VRS6 harboring GyrA S84L and GrlA S80F, E84G mutant after 24 hrs by CLSI method. The settings on record: VRS6, 24 h. The format is functional.
The test system of data set [3] is Staphylococcus aureus. The data set is described as follows: Antibacterial activity against vancomycin-resistant Staphylococcus aureus VRS2 harboring GyrA S84L and GrlA S80F mutant after 24 hrs by CLSI method. The format is functional. The following applies: VRS2, 24 h.
Data set [4] concerns Staphylococcus aureus. The data set is described as follows: Antibacterial activity against quinolone-resistant Staphylococcus aureus after 24 hrs by CLSI method. The format is functional.
For data set [5], the system named is Staphylococcus aureus. The data set is described as follows: microbe, parasite or virus in culture. The following applies: Staphylococcus aureus, 32, 24 h.
Description: Antibacterial activity against vancomycin-susceptible methicillin-resistant Staphylococcus aureus 32 harboring GyrA S84L and GrlA S80Y mutant after 24 hrs by CLSI method
For data set [6], the system named is Staphylococcus aureus. The data set is described as follows: Antibacterial activity against vancomycin-resistant Staphylococcus aureus VRS4 harboring GyrA S84L and GrlA S80F, E84K mutant after 24 hrs by CLSI method. Format: functional, organism-based.
Data set [7] deals with Staphylococcus aureus. The data set is described as follows: Antibacterial activity against vancomycin-resistant Staphylococcus aureus VRS7 harboring GyrA S84L and GrlA S80F mutant after 24 hrs by CLSI method. The format is functional, organism-based.
Data set [8] concerns Staphylococcus aureus. The data set is described as follows: Antibacterial activity against vancomycin-resistant Staphylococcus aureus VRS5 harboring GyrA S84L, E88K and GrlA S80Y, E84G mutant after 24 hrs by CLSI method. The following applies: VRS5, 24 h.
Data set [9] concerns Staphylococcus aureus. The data set is described as follows: Antibacterial activity against community acquired methicillin-resistant Staphylococcus aureus after 24 hrs by CLSI method. The format is functional.
Data set [10] concerns Staphylococcus aureus. The data set is described as follows: Antibacterial activity against vancomycin-intermediate Staphylococcus aureus Mu50 harboring GyrA S84L and GrlA S80F mutant after 24 hrs by CLSI method. The format is functional. The settings on record: Mu50, 24 h.
For data set [11], the system named is Staphylococcus aureus. The data set is described as follows: Antibacterial activity against methicillin-susceptible Staphylococcus aureus after 24 hrs by CLSI method. The format is functional.
Data set [12] concerns Staphylococcus aureus. The data set is described as follows: Antibacterial activity against vancomycin-resistant Staphylococcus aureus VRS3 harboring GyrA S84L and GrlA S80F, E84K mutant after 24 hrs by CLSI method. The following applies: VRS3, 24 h. Format: functional.
The test system of data set [13] is Staphylococcus aureus. Kind of data set: Antibacterial activity against vancomycin-resistant Staphylococcus aureus VRS1 harboring GyrA S84L and GrlA S80F mutant after 24 hrs by CLSI method. Format: functional. The settings on record: VRS1, 24 h.
Data set [14] relates to Staphylococcus aureus. The data set is described as follows: Antibacterial activity against vancomycin-intermediate Staphylococcus aureus after 24 hrs by CLSI method. Format: functional.
Data set [15] is described as follows: Ratio of AUC in human to MIC for Staphylococcus aureus after 24 hrs. Format: functional.
Data set [16] relates to Staphylococcus aureus. The data set is described as follows: Antibacterial activity against Staphylococcus aureus after 24 hrs by CLSI method. Format: functional.
The test system of data set [17] is Staphylococcus aureus. The data set is described as follows: microbe, parasite or virus in culture. The following applies: Mu3, 24 h.
Description: Antibacterial activity against vancomycin-intermediate Staphylococcus aureus Mu3 harboring GyrA S84L and GrlA S80F mutant after 24 hrs by CLSI method
Data set [18] concerns Staphylococcus aureus. Kind of data set: Antibacterial activity against hospital acquired methicillin-resistant Staphylococcus aureus after 24 hrs by CLSI method. The format is functional.
Data set [19] has as its system Staphylococcus aureus. Kind of data set: microbe, parasite or virus in culture. The settings on record: Staphylococcus aureus, 34, 24 h.
Description: Antibacterial activity against vancomycin-susceptible methicillin-resistant Staphylococcus aureus 34 harboring GyrA S84L and GrlA S80F mutant after 24 hrs by CLSI method

Broadly, the AUC is concentration integrated over time. High values mean high exposure, low ones low exposure. As a reminder, the MIC50 is an inhibitory concentration at the 50% level, which refers to growth in some studies and to a panel of isolates in others. A higher MIC50 goes with lower susceptibility. What is called MIC90 is the lowest concentration that inhibits either 90% of growth or 90% of the strains tested, depending on the study. Low readings indicate greater potency, high ones weaker potency. With `C[C@H]1CCc2c(N3CCC(O)CC3)c(F)cc3c(=O)c(C(=O)O)cn1c23.N=C(N)NCCC[C@H](N)C(=O)O`, in data set [1], the AUC at 24 h turned out to be 390 µg·h/mL. In addition, the MIC in [2] is 0.5 µg/mL; in data set [3], 0.5 µg/mL; in [5], 0.5 µg/mL; in data set [8], 8 µg/mL; in data set [10], 1 µg/mL; in data set [12], 0.5 µg/mL. For the same molecule, the MIC was 0.5 µg/mL in data set [13], 1 µg/mL in data set [17] and 0.5 µg/mL in data set [19]. Moreover, the MIC50 in [4] was determined as 0.5 µg/mL; in data set [9], 0.03 µg/mL; in [11], 0.03 µg/mL; in data set [14] it was 0.25 µg/mL; in data set [16], 0.03 µg/mL; in [18], 0.5 µg/mL. Moreover, the MIC90 in data set [4] was 1 µg/mL; in data set [9] it was 0.5 µg/mL; in [11], 0.25 µg/mL; in data set [14] it was 0.5 µg/mL; in data set [16] it was 1 µg/mL; in data set [18], 1 µg/mL. For the same molecule, the result in [6] and in [7] was Active. Further, the RatioAUC/MIC in data set [15] stood at 58.5.

As to `CN[C@H](CC(C)C)C(=O)N[C@H]1C(=O)N[C@@H](CC(N)=O)C(=O)N[C@H]2C(=O)N[C@H]3C(=O)N[C@H](C(=O)N[C@H](C(=O)O)c4cc(O)cc(O)c4-c4cc3ccc4O)[C@H](O)c3ccc(c(Cl)c3)Oc3cc2cc(c3O[C@@H]2O[C@H](CO)[C@@H](O)[C@H](O)[C@H]2O[C@H]2C[C@](C)(N)[C@H](O)[C@H](C)O2)Oc2ccc(cc2Cl)[C@H]1O` [VANCOMYCIN], the MIC in data set [2] stood at 128 µg/mL (≈ 88.3 µM); in [3] it was 32 µg/mL (≈ 22.1 µM); in [8], 64 µg/mL (≈ 44.2 µM); in [10], 8 µg/mL (≈ 5.52 µM); in data set [12] it was 64 µg/mL (≈ 44.2 µM); in data set [13], 128 µg/mL (≈ 88.3 µM). The MIC50 is 1 µg/mL (≈ 0.69 µM) in [4]; 1 µg/mL (≈ 0.69 µM) in data set [9]; 1 µg/mL (≈ 0.69 µM) in data set [11]; 4 µg/mL (≈ 2.76 µM) in data set [14]; 1 µg/mL (≈ 0.69 µM) in [16]; 1 µg/mL (≈ 0.69 µM) in data set [18]. Moreover, the MIC90 is 4 µg/mL (≈ 2.76 µM) in data set [4]; 1 µg/mL (≈ 0.69 µM) in data set [9]; 1 µg/mL (≈ 0.69 µM) in [11]; 4 µg/mL (≈ 2.76 µM) in [14]; 1 µg/mL (≈ 0.69 µM) in data set [16]; 4 µg/mL (≈ 2.76 µM) in data set [18].
